Values quoted from earlier work, collected in patent US9511078B2, “Self-nanoemulsion of poorly soluble drugs” (Kashiv Pharma, LLC, priority 2013, dated 2016).

How the values were obtained:
[1] = high-fat meal (57% fat, 825 calories)

Abiraterone AUC0-∞, fold higher with food [1] [fold] | Abiraterone Cmax, fold higher with food [1] | Log P | Compound
~10 | approximately 17 fold | – | CC(=O)O[C@H]1CC[C@@]2(C)C(=CC[C@@H]3[C@@H]2CC[C@]2(C)C(c4cccnc4)=CC[C@@H]32)C1 [Abiraterone acetate]
– | – | 3.5 | CC(=O)[C@H]1CC[C@H]2[C@@H]3CCC4=CC(=O)CC[C@]4(C)[C@H]3CC[C@]12C [Progesterone, pregn-4-ene-3,20-dione]
